Laboratory results reported in patent US20060069040A1, “GHB compositions” (priority 2004, published 2006).
Like-named read-outs stand apart in the source and are kept apart here.

How the values were obtained:
CD-1 male mice [1] = assay: Passivity test (sleep induction and sleep time); assay type: in vivo; conditions: for Effect on GHB induced sleep time: 800 mg/kg i.p. of named compound followed immediately by GHB 800 mg/kg i.p.; for Effect on GHB sleep time: Example 6: 7.93 mmol/kg of named agent mixed in solution with GHB 7.93 mmol/kg, oral gavage, 8 mice
Experimental: (§1) CD-1 male mice (30-40 g) were housed 3 to 4 per cage in the animal care facility on a 12 hour light dark cycle with free access to water and food for at least 1 week before testing.
The passivity test developed by Irwing was used to determine sleep time. After GHB administration, the mice were placed in an unusual position and a score of 2, 4, 6, or 8 was given when the mice ceased to struggle against respectively being suspended vertically, rotated horizontally onto their backs, suspended by their hind limbs or suspended by their forelimbs. Scores on the passivity test were determined every 10 minutes after GHB administration. […] The time between scores of 8 and 2 was defined as the total sleep time.
(§2) Statistical significance between control and treated groups at each time point in the present study was determined by student's t-test. Note that values of motor activity were expressed as a percentage of the baseline value which was normalized to 100%.
The optimal dose of GHB for inducing sleep was determined with the passivity test. GHB was dissolved in 0.9% NaCl and 1% Tween 80 and delivered intraperitoneally (i.p.) to 4 groups of 6 mice that had not been fasting. Each group received either 200 mg/kg, 400 mg/kg, 600 mg/kg and 800 mg/kg. […] For this reason, this dose was used in the initial exploratory studies.

CD-1 male mice [2] = assay type: in vivo; conditions: for Effect on GHB induced motor inhibition: Example 3: named compound 800 mg/kg i.p. 2 or 15 minutes before GHB 800 mg/kg i.p., mice not fasting; for Effect on motor depression by oral GHB: Example 5: named compound 1200 mg/kg i.p. with GHB 1200 mg/kg orally
Experimental: as §1
The Rota-rod is a validated and sensitive tool that has been developed to document neurological deficits after pharmacological treatments. In this test, mice are placed on an accelerating Rota-rod whose revolutions per minute increase from 4 to 40 cycles per minute in about 4 minutes. The time it takes for the mice to fall off the rod is the end point of the test. Initially, the mice were given 3 practice runs on the rod to familiarize themselves with the test procedure. The time that mice remained on the rod was usually between five and ten minutes. A baseline measure was then made, the test drug given and the test procedure run every 20 minutes starting at time 0, immediately after drug administration. The mice were tested for 160 minutes after GHB administration although in some experiments recordings were made for as long as 280 minutes. Motor activity was expressed as a percentage of the baseline value. The time it took the mice to fall off the rod at a given time point after drug administration was divided by the time it took at baseline.
as §2

[3] = previous work (ref. 7); rats, tracer doses of GHB, intravenous infusion; cited from earlier work
[4] = cited from earlier work

For `O=C[C@H](O)[C@@H](O)[C@H](O)[C@H](O)C(=O)[O-].[Na+]` [GCA, D-glucuronic acid sodium salt], the “Effect on GHB induced sleep time” value (CD-1 male mice [1]; non-fasting mice) is given as “did not show an increase in GHB induced sleep time”, the “Effect on GHB induced motor inhibition” value (CD-1 male mice [2]) is given as “potentiated and prolonged the motor inhibition produced by GHB” and the “Effect on plasma half-life of GHB” value [3] is given as “decreased the plasma half-life of GHB”.

For `O=C([O-])[C@H](O)[C@@H](O)[C@H](O)[C@H](O)CO.[Na+]` [GA, D-gluconic acid sodium salt], the “Effect on GHB induced sleep time” value (CD-1 male mice [1]; non-fasting mice) was “did not show an increase in GHB induced sleep time”.

For `O=C(O)Cc1ccccc1` [PA, phenylacetic acid], the “Effect on inhibitory effects of GHB on motor activity” value (CD-1 male mice [2]; Example 4: phenylacetic acid […] mg/kg mixed in solution with GHB 800 mg/kg, oral, vs GHB 800 mg/kg oral alone) was “significantly intensified and prolonged the inhibitory effects of GHB on motor activity”.

For `O=C1O[C@H]([C@@H](O)CO)[C@H](O)[C@@H]1O` [GL, L-gulono-γ-lactone], the “Effect on GHB sleep time” value (CD-1 male mice [1]) was “appeared to increase the sleep time”, the “Effect on motor depression by oral GHB” value (CD-1 male mice [2]) was “further significantly enhanced” and the “Effect on motor inhibition produced by GHB” value (CD-1 male mice [2]; mouse, in vivo, po) was “neither oral gluconic acid lactone or gulonolactone augmented the depressant effects of GHB”.

In the case of `O=C([O-])Cc1ccccc1.[Na+]` [phenylacetate sodium salt], the “Solubility in saline” value [4] is given as “can be readily dissolved in saline”.

In the case of `O=C([O-])[C@@H](O)[C@@H](O)[C@H](O)[C@@H](O)CO.[Na+]` [G, L-gulonic acid sodium salt], the “Effect on GHB sleep time” value (CD-1 male mice [1]) is reported as “almost doubled the sleep time”, the “Effect on motor inhibition produced by GHB” value (CD-1 male mice [2]; mouse, in vivo, po) is reported as “significantly prolonged and deepened the motor inhibition produced by GHB” and the “Effect on motor performance on its own” value (CD-1 male mice [2]; mouse, in vivo, po) is reported as “had no effect on motor performance”. The “Percent of motor activity after GHB administration, 0′” value (CD-1 male mice [2]; mouse, in vivo, po) was 168 ± 5%, the “Percent of motor activity after GHB administration, 20′” value (CD-1 male mice [2]; mouse, in vivo, po) was 50 ± 24% and the “Percent of motor activity after GHB administration, 40′” value (CD-1 male mice [2]; mouse, in vivo, po) was 303 ± 12%. For the same compound, the “Percent of motor activity after GHB administration, 60′” value (CD-1 male mice [2]; mouse, in vivo, po) was 183 ± 4%, the “Percent of motor activity after GHB administration, 80′” value (CD-1 male mice [2]; mouse, in vivo, po) was 156 ± 2% and the “Percent of motor activity after GHB administration, 100′” value (CD-1 male mice [2]; mouse, in vivo, po) was 66 ± 9%. For the same compound, the “Percent of motor activity after GHB administration, 160′” value (CD-1 male mice [2]; mouse, in vivo, po) was 126 ± 3%, the “Percent of motor activity after GHB administration, 220′” value (CD-1 male mice [2]; mouse, in vivo, po) was 303 ± 23% and the “Percent of motor activity after GHB administration, 280′” value (CD-1 male mice [2]; mouse, in vivo, po) was 141 ± 5%. The “Effect on plasma half-life of GHB” value [3] was “can extend the plasma half-life of GHB”.

In the case of `O=C1O[C@H](CO)[C@@H](O)[C@H](O)[C@H]1O` [GAL, D-gluconic acid lactone], the “Effect on GHB sleep time” value (CD-1 male mice [1]) is reported as “appeared to increase the sleep time”, the “GHB induced sleep time” value (CD-1 male mice [1]; non-fasting mice, n=6/group, GHB 800 mg/kg i.p. alone or immediately after 800 mg/kg i.p. of the named compound) is reported as 155 ± 11 min and the “Effect on GHB induced motor inhibition” value (CD-1 male mice [2]) is reported as “most effectively potentiated GHB induced motor inhibition with significant effects at the 160 minute mark”. The “Effect on motor depression by oral GHB” value (CD-1 male mice [2]) was “further significantly enhanced” and the “Effect on motor inhibition produced by GHB” value (CD-1 male mice [2]; Example 6: named agent 7.93 mmol/kg orally together with GHB 7.93 mmol/kg) was “neither oral gluconic acid lactone or gulonolactone augmented the depressant effects of GHB”.
